Data: patent publication US8648086B2, “5,6-bicyclic heteroaryl-containing urea compounds as kinase inhibitors” (Ascepion Pharmaceuticals, Inc., priority 2009, dated 2014)
Where a name gives a salt, the structure may show the parent alone.

What was measured:
VEGFR2 = molecular target: T1, VEGFR2 (Homo sapiens, UniProt P35968); test: VEGFR2 cell-based assay (phospho-VEGFR2 ELISA, transfected CHO cells); conditions: compound at 100 nM, read-out: % VEGFR2 kinase activity remains
T1 construct: expressed in transfected cells; host or cells: CHO cells, pcDNA3.1 plasmid
Method: A standard cell-based assay for VEGFR2 kinase activity can be used to test compounds of this invention and to identify VEGFR2 antagonists.
Specifically, a compound to be tested was first dissolved in DMSO to a concentration of 10 mM and stored at −20° C. The activity of VEGFR2 in cells depends on the phosphorylation level at its intracellular domain induced by the ligand. In order to express VEGFR2 in the cells, full length VEGFR2 sequence was cloned into PC-DNA3.1 vector, the plasmid was then transfected into CHO cells. After 48 hours, the expression of VEGFR2 in transfected CHO cells was confirmed by regular western blotting.
To screen the compounds of this invention, the ELISA kit (R&D Systems) was used. One day before the screening, CHO cells transfected with full length VEGFR2 plasmid were grown in DMEM medium without the presence of serum. On the day of screening, various concentrations of compounds (From 0.5 nM to 500 nM) were added into DMEM medium. Two hours later, 20% of FBS (Fetal Bovine Serum) was added into the medium to stimulate the production of phosphor-VEGFR2. Cell lysate from approximately 5×10^5 transfected CHO cells were reacted with anti-phosphor-VEGFR2 or anti-total VEGFR2 antibody in 96 well plates. In the presence of detection antibody, the phosphor-VEGFR2 or total VEGFR2 were detected with Streptavidin-HRP (R&D Systems) followed by chemiluminescence detection.

c-Met = molecular target: T2, c-Met (Homo sapiens, UniProt P08581); test: c-Met cell-based assay (phospho-c-Met ELISA, A549 cells); conditions: compound at 100 nM
T2 construct: endogenous in cells; host or cells: A549 cells
Method: A procedure for standard cell-based assay for c-Met kinase activity can be used to test compounds of this invention for their inhibitory effect on this kinase and to identify c-Met antagonists.
Specifically, a compound to be tested was first dissolved in DMSO to a concentration of 10 mM and stored at −20° C. The activity of c-Met in cells depends on the phosphorylation level at its intracellular domain induced by its ligand, Hepatocyte growth factor (HGF). In order to induce the cells to produce phosphate c-Met, paracrine HGF-dependent NSCLC (None Small Cell Lung Cancer) A549 cells were grown in DMEM with 10% FBS.
To screen compounds of this invention for their inhibitory effect on c-Met kinase, the ELISA kit (R&D Systems) was used. One day before screening procedure, A549 cells were grown in DMEM without the presence of serum. On the day of screening procedure, various concentrations of compounds (from 0.5 nM to 500 nM) were added into the culture medium. Two hours later, 20% of FBS (Fetal Bovine Serum) was added into the medium to stimulate the expression of phosphor-c-Met. After 20 minutes, cell lysate from approximately 5×10^5 A549 cells were reacted with anti-phosphor-c-Met or anti total c-Met antibody in 96 well plates. In the presence of detection antibody, the phosphor-c-Met or total c-Met can be detected with Streptavidin-HRP (R&D Systems) followed by chemiluminescence detection.

T2 sequence (P08581 25-1390): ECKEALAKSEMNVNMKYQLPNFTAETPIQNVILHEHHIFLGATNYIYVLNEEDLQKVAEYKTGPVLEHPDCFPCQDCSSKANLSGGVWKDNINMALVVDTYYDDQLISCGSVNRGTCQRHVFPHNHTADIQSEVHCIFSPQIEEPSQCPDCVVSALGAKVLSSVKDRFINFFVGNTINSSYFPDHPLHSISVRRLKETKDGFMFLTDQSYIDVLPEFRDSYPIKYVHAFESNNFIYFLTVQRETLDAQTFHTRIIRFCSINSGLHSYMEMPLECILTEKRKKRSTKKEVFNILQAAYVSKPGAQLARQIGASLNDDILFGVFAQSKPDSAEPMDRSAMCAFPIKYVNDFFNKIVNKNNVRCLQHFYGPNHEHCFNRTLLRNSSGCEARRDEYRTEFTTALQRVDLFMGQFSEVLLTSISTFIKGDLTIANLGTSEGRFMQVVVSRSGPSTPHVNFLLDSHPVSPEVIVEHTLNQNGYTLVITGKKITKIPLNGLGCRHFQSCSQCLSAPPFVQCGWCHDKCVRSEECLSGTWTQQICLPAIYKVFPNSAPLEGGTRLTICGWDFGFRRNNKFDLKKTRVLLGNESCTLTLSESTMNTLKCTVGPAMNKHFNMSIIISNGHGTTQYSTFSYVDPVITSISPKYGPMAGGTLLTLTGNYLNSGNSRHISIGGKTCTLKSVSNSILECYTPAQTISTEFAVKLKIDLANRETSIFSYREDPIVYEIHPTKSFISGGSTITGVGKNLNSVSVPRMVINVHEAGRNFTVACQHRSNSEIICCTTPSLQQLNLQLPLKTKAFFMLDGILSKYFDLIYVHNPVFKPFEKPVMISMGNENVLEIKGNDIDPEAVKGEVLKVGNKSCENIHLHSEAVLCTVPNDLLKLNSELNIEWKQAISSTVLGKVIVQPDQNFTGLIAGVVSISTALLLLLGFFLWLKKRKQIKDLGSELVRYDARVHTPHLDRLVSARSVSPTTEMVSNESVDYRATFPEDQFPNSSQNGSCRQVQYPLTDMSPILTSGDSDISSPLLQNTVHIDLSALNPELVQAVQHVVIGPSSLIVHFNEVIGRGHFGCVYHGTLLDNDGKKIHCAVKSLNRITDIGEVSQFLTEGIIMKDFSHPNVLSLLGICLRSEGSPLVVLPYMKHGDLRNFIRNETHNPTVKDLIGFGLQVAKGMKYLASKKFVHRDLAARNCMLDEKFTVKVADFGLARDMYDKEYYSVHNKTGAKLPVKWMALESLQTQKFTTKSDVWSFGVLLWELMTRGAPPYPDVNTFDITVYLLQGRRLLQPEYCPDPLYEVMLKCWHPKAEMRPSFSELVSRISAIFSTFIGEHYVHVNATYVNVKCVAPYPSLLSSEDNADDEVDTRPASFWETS
T1 sequence (P35968 20-1356, species assumed): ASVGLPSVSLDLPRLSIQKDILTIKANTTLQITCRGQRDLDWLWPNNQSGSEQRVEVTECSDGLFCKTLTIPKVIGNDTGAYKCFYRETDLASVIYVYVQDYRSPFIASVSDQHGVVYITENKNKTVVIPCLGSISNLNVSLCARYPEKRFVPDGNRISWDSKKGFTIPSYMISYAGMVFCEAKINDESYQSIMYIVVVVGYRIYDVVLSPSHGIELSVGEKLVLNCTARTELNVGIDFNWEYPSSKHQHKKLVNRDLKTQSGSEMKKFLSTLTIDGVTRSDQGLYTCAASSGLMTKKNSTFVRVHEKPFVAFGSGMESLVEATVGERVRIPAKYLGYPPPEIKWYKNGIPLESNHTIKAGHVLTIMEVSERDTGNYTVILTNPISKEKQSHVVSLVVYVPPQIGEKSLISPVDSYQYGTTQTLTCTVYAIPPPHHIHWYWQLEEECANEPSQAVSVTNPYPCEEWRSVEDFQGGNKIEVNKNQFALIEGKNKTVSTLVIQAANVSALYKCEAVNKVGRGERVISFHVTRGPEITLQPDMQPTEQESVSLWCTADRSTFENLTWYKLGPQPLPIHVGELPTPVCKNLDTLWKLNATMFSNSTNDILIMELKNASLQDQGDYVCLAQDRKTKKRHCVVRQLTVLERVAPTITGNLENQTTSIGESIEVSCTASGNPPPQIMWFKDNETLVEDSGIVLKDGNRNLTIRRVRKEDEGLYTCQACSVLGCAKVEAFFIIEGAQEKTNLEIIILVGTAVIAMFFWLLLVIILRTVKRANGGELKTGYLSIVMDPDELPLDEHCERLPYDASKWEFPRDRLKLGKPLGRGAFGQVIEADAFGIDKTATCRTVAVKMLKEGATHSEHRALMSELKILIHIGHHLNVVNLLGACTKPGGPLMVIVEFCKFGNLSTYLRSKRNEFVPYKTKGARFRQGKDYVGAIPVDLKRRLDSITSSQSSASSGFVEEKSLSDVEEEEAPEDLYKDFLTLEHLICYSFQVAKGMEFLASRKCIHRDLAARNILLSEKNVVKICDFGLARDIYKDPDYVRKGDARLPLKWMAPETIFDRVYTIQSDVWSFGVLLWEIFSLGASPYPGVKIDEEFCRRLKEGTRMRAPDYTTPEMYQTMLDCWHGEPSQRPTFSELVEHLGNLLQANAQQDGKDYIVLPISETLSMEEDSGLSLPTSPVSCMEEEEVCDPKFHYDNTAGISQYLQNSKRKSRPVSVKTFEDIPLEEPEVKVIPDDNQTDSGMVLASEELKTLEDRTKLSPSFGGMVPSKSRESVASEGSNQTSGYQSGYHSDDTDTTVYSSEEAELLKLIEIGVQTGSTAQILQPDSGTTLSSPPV

SMILES | remaining activity at 0.1 µM (VEGFR2) [%] | % c-Met kinase activity remains (c-Met)
Cl.O=C(Nc1ccccc1OC(F)(F)F)Nc1cccc2c1ccn2Cc1c[nH]c2ncccc12 [Example 20, 1-(2-Trifluoromethoxyphenyl)-3-[1-(1H-pyrrolo[2,3-b]pyridin-3-ylmethyl)-1H-indol-4-yl]urea hydrochloride] | < 70 | A (the percentage of kinase activity remains is below 70%)
COc1ccccc1NC(=O)Nc1cccc2c1ccn2Cc1ccnc2[nH]ccc12.Cl [Example 46, 1-(2-Methoxyphenyl)-3-[1-(1H-pyrrolo[2,3-b]pyridin-4-ylmethyl)-1H-indol-4-yl]urea hydrochloride] | ≥ 70 | B (the percentage is greater or equal to 70%)
Cc1cccc(NC(=O)Nc2cccc3c2ccn3Cc2c[nH]c3ncccc23)c1.Cl [Example 15, 1-(3-Methylphenyl)-3-[1-(1H-pyrrolo[2,3-b]pyridin-3-ylmethyl)-1H-indol-4-yl]urea hydrochloride] | < 70 | A (the percentage of kinase activity remains is below 70%)
Cl.O=C(Nc1ccccc1F)Nc1cccc2c1ccn2Cc1c[nH]c2ncccc12 [Example 5, 1-(2-Fluorophenyl)-3-[1-(1H-pyrrolo[2,3-b]pyridin-3-ylmethyl)-1H-indol-4-yl]urea hydrochloride] | ≥ 70 | A (the percentage of kinase activity remains is below 70%)
Cl.O=C(Nc1ccccc1Br)Nc1cccc2c1ccn2Cc1c[nH]c2ncccc12 [Example 11, 1-(2-Bromophenyl)-3-[1-(1H-pyrrolo[2,3-b]pyridin-3-ylmethyl)-1H-indol-4-yl]urea hydrochloride] | ≥ 70 | A (the percentage of kinase activity remains is below 70%)
Cl.O=C(Nc1ccccc1)Nc1cccc2c1ccn2Cc1ccnc2[nH]ccc12 [Example 33, 1-Phenyl-3-[1-(1H-pyrrolo[2,3-b]pyridin-4-ylmethyl)-1H-indol-4-yl]urea hydrochloride] | < 70 | B (the percentage is greater or equal to 70%)
Cc1ccc(NC(=O)Nc2cccc3c2ccn3Cc2ccnc3[nH]ccc23)cc1.Cl [Example 45, 1-(4-Methylphenyl)-3-[1-(1H-pyrrolo[2,3-b]pyridin-4-ylmethyl)-1H-indol-4-yl]urea hydrochloride] | < 70 | A (the percentage of kinase activity remains is below 70%)
Cl.O=C(Nc1ccccc1Br)Nc1cccc2c1ccn2Cc1ccnc2[nH]ccc12 [Example 40, 1-(2-Bromophenyl)-3-[1-(1H-pyrrolo[2,3-b]pyridin-4-ylmethyl)-1H-indol-4-yl]urea hydrochloride] | < 70 | A (the percentage of kinase activity remains is below 70%)
Cl.O=C(Nc1ccc(Br)cc1)Nc1cccc2c1ccn2Cc1ccnc2[nH]ccc12 [Example 42, 1-(4-Bromophenyl)-3-[1-(1H-pyrrolo[2,3-b]pyridin-4-ylmethyl)-1H-indol-4-yl]urea hydrochloride] | < 70 | B (the percentage is greater or equal to 70%)
Cc1ccccc1NC(=O)Nc1cccc2c1ccn2Cc1c[nH]c2ncccc12.Cl [Example 14, 1-(2-Methylphenyl)-3-[1-(1H-pyrrolo[2,3-b]pyridin-3-ylmethyl)-1H-indol-4-yl]urea hydrochloride] | < 70 | A (the percentage of kinase activity remains is below 70%)
Cc1ccc(NC(=O)Nc2cccc3c2ccn3Cc2c[nH]c3ncccc23)cc1.Cl [Example 16, 1-(4-Methylphenyl)-3-[1-(1H-pyrrolo[2,3-b]pyridin-3-ylmethyl)-1H-indol-4-yl]urea hydrochloride] | ≥ 70 | A (the percentage of kinase activity remains is below 70%)
Cl.O=C(Nc1cccc(F)c1)Nc1cccc2c1ccn2Cc1c[nH]c2ncccc12 [Example 6, 1-(3-Fluorophenyl)-3-[1-(1H-pyrrolo[2,3-b]pyridin-3-ylmethyl)-1H-indol-4-yl]urea hydrochloride] | < 70 | B (the percentage is greater or equal to 70%)
Cl.O=C(Nc1ccc(C(F)(F)F)cc1)Nc1cccc2c1ccn2Cc1c[nH]c2ncccc12 [Example 25, 1-(4-Trifluoromethylphenyl)-3-[1-(1H-pyrrolo[2,3-b]pyridin-3-ylmethyl)-1H-indol-4-yl]urea hydrochloride] | ≥ 70 | A (the percentage of kinase activity remains is below 70%)
Cl.N#Cc1ccc(NC(=O)Nc2cccc3c2ccn3Cc2c[nH]c3ncccc23)cc1 [Example 27, 1-(4-Cyanophenyl)-3-[1-(1H-pyrrolo[2,3-b]pyridin-3-ylmethyl)-1H-indol-4-yl]urea hydrochloride] | < 70 | A (the percentage of kinase activity remains is below 70%)
COc1ccc(NC(=O)Nc2cccc3c2ccn3Cc2c[nH]c3ncccc23)cc1.Cl [Example 19, 1-(4-Methoxyphenyl)-3-[1-(1H-pyrrolo[2,3-b]pyridin-3-ylmethyl)-1H-indol-4-yl]urea hydrochloride] | < 70 | A (the percentage of kinase activity remains is below 70%)
Cl.O=C(Nc1cccc(C(F)(F)F)c1)Nc1cccc2c1ccn2Cc1c[nH]c2ncccc12 [Example 24, 1-(3-Trifluoromethylphenyl)-3-[1-(1H-pyrrolo[2,3-b]pyridin-3-ylmethyl)-1H-indol-4-yl]urea hydrochloride] | < 70 | A (the percentage of kinase activity remains is below 70%)
Cl.O=C(Nc1cc(Br)ccc1F)Nc1cccc2c1ccn2Cc1ccnc2[nH]ccc12 [Example 57, 1-(2-Fluoro-5-bromophenyl)-3-[1-(1H-pyrrolo[2,3-b]pyridin-4-ylmethyl)-1H-indol-4-yl]urea hydrochloride] | < 70 | A (the percentage of kinase activity remains is below 70%)
O=C(Nc1ccccc1Cl)Nc1cccc2c1ccn2Cc1c[nH]c2ncccc12 [Example 8, 1-(2-Chlorophenyl)-3-[1-(1H-pyrrolo[2,3-b]pyridin-3-ylmethyl)-1H-indol-4-yl]urea hydrochloride] | ≥ 70 | A (the percentage of kinase activity remains is below 70%)
Cl.O=C(Nc1cccc(Br)c1)Nc1cccc2c1ccn2Cc1ccnc2[nH]ccc12 [Example 41, 1-(3-Bromophenyl)-3-[1-(1H-pyrrolo[2,3-b]pyridin-4-ylmethyl)-1H-indol-4-yl]urea hydrochloride] | ≥ 70 | B (the percentage is greater or equal to 70%)
Cc1c(F)cccc1NC(=O)Nc1cccc2c1ccn2Cc1ccnc2[nH]ccc12.Cl [Example 59, 1-(2-Methyl-3-fluorophenyl)-3-[1-(1H-pyrrolo[2,3-b]pyridin-4-ylmethyl)-1H-indol-4-yl]urea hydrochloride] | < 70 | A (the percentage of kinase activity remains is below 70%)
Cl.O=C(Nc1ccc(F)cc1)Nc1cccc2c1ccn2Cc1c[nH]c2ncccc12 [Example 7, 1-(4-Fluorophenyl)-3-[1-(1H-pyrrolo[2,3-b]pyridin-3-ylmethyl)-1H-indol-4-yl]urea hydrochloride] | < 70 | A (the percentage of kinase activity remains is below 70%)
COc1cccc(NC(=O)Nc2cccc3c2ccn3Cc2c[nH]c3ncccc23)c1.Cl [Example 18, 1-(3-Methoxyphenyl)-3-[1-(1H-pyrrolo[2,3-b]pyridin-3-ylmethyl)-1H-indol-4-yl]urea hydrochloride] | < 70 | A (the percentage of kinase activity remains is below 70%)
